# Experimental data as given in patent US12622910B2, “Inhibitors of Bruton's tyrosine kinase and methods of their use” (Janssen Pharmaceutica NV, priority 2021, dated 2026).
# Where two headings read alike, the source gives them in different places. Marks after values point to notes of the source that are not given here.
# Columns and labels:
# [1] = test system: IL-6 secretion, ABC-DLBCL OCI-LY-10 cells; experiment: IL-6 secretion by OCI-LY-10 cells (MesoScale); assay type: cell-based; settings: Homo sapiens, OCI-Ly10; 6 independent experiments; read-out: IC50, IL-6 secretion (mean±SEM)
# Protocol: In Vitro Activity in DLBCL Cell Lines—NFκB signaling regulates the secretion of multiple cytokines, including interleukin (IL)-6 and IL-10. Secretion of IL-6 and -10 by ABC-DLBCL OCI-LY-10 cells was measured using a MesoScale assay. […] To determine the anti-proliferative activity of the compound of formula (III), several ABC-DLBCL cell lines—OCI-LY-3, OCI-LY-10, TMD8, and HBL-1—were treated for 8 days. […] The OCI-LY-3 cell line, which harbors a CARD11 mutation downstream of BTK in the NF-κB signaling pathway, was completely insensitive to the compound of Formula (III) up to 2 μM. In 2 experiments, OCI-LY-3 cells were insensitive to the compound of Formula (III) at all concentrations up to 10 μM.
# [2] = Plasma protein binding, equilibrium dialysis; assay type: in vitro ADME
# Protocol: (§1) Additional Data on Preclinical PK Profile—Protein binding of the compound of Formula (III) was studied using an equilibrium dialysis method in plasma from human, cynomolgus monkey, beagle dog, Sprague Dawley rat, CD-1 mouse, and guinea pig at 0.25, 2.5, and 25 μM. […] In human and monkey, the plasma protein binding was concentration dependent. […] Free fraction of the compound of Formula (III) in liver microsomes from various species ranged from 75.1% to 87.9% at 0.25 mg/mL and from 58.9% to 86.5% at 1.0 mg/mL (Table 17). […] In hepatocytes, the compound of Formula (III) turnover followed a similar trend, with T1/2 ranging from 75.3 minutes in monkey to 278.1 minutes in human.
# [3] = Metabolic stability in liver microsomes; assay type: in vitro ADME, rat
# Protocol: as §1
# B-cell activation = experiment: Inhibition of B-cell activation after dosing (FIG. 22); assay type: in vivo; settings: 2, 3, and 10 mg/kg, at 8 hours
# Excerpt: Data represent mean±SEM (n=3/group).
# [4] = target: 278 human wild type kinases; experiment: Full human wild-type kinase panel (KinaseProfiler); assay type: biochemical; settings: 1 micromolar
# Protocol: RESULTS AND DISCUSSION—Selectivity—The compound of Formula (III) was evaluated in three selectivity panels to assess the potential for off-target pharmacology (Table 8). […] The kinase off-target profile of The compound of Formula (III) was assessed in a full human wild-type panel using radiometric kinase activity assays (KinaseProfiler™ and IC50Profiler™; Eurofins Scientific) (Table 9; FIG. 23). The compound of Formula (III) inhibited 4/278 kinases >50% at 1 micromolar, identifying BTK and the three other kinases having analogous Cys residues with the potential for covalent inhibition (BMX, TEC, BLK). […]. The cellular kinase selectivity of The compound of Formula (III) was established in native Ramos B cell kinome assays (KiNativ™; ActivX) confirmed BTK as the primary target with inhibition of BLK and TEC inhibition detected (Table 10).
# [5] = Plasma protein binding, equilibrium dialysis; assay type: in vitro ADME, Sprague Dawley rat
# Protocol: as §1
# [6] = Metabolic stability in hepatocytes; assay type: in vitro ADME; settings: for half-life: read-out: T1/2, hepatocytes
# Protocol: as §1
# [7] = Preclinical PK, oral and IV; assay type: in vivo, rat; settings: for Cmax / Tmax / AUC(0-inf): po, 5 mg/kg; for AUC(0-inf): read-out: Oral AUCinf
# [8] = Blood-to-plasma concentration ratio; assay type: in vitro ADME; settings: human, fresh blood
# Liver microsomal binding = assay type: in vitro ADME; settings: liver microsomes, read-out: % Free in liver microsomes
# Protocol: as §1
# [9] = CD-1, mouse, read-out: % Free in plasma
# [10] = beagle, dog, read-out: % Free in plasma
# [11] = cynomolgus monkey, read-out: % Free in plasma
# [12] = rat, in vivo, 5 mg/kg crystalline suspension PO (0.5% HPMC)
# [13] = rat, in vivo, 5 mg/kg solution PO (20% HPβCD)
smiles,measurement,setting,value
"C=CC(=O)N[C@H]1CCC[C@H]1NC(=O)c1sc2nccc3c2c1NC(=O)N3c1cnc(CC(C)C)cc1C (atropisomer, axis not shown) [compound of Formula (III), N-((1R,2S)-2-Acrylamidocyclopentyl)-5-(S)-(6-isobutyl-4-methylpyridin-3-yl)-4-oxo-4,5-dihydro-3H-1-thia-3,5,8-triazaacenaphthylene-2-carboxamide]",IC50,[1],16 ± 3 nM
same,fraction unbound at 0.25 μM,[2]; [9],0.0192
same,fraction unbound at 2.5 μM,"[2]; CD-1, mouse, 2.5 μM, read-out: % Free in plasma",0.024
same,fraction unbound at 25 μM,[2]; [9],0.0335
same,fraction unbound at 0.25 μM,[2]; [10],0.0688
same,fraction unbound at 25 μM,[2]; [10],0.0685
same,fraction unbound at 0.25 μM,[2]; [11],< 0.004
same,fraction unbound at 25 μM,[2]; [11],0.0532
same,fraction unbound at 1 μM,"[2]; female, Wistar, rat, read-out: free fraction in plasma",0.0754
same,"Extraction Ratio, liver microsomes",[3]; Rat,0.58
same,microsomal CLint,"[3]; rat, liver microsomes",53.8 µL/min/mg
same,half-life,"[3]; rat, liver microsomes, read-out: T1/2, liver microsomes",0.215 h
same,inhibition ratio of B-cell activation,B-cell activation,≥ 78%
same,kinases inhibited >50%,[4],4/278
same,% Free in plasma,[5]; 0.25 μM,3.73%
same,fraction unbound at 2.5 μM,"[5]; Sprague Dawley, rat, plasma, 2.5 μM, read-out: % Free in plasma",0.0365
same,fraction unbound at 25 μM,"[5]; Sprague Dawley, rat, plasma, 25 μM, read-out: % Free in plasma",0.0405
same,hepatocyte CLint,[6]; dog,19.2 µL/min/1e6 cells
same,half-life,[6]; dog,4.62 h
same,hepatocyte CLint,[6]; human,15.4 µL/min/1e6 cells
same,half-life,[6]; human,4.64 h
same,hepatocyte CLint,[6]; rat,52.3 µL/min/1e6 cells
same,half-life,[6]; rat,2.12 h
same,F,[7]; 5 mg/kg crystalline suspension PO (0.5% HPMC),41 ± 19^b %
same,F,[7]; 5 mg/kg solution PO (20% HPβCD),28 ± 6^a; %
same,clearance,"[7]; rat, in vivo, iv",55 ± 2 mL/min/kg
same,half-life,"[7]; rat, in vivo, iv, read-out: IV T1/2 (converted)",0.4 h
same,Vd,"[7]; rat, in vivo, iv, read-out: Vss",1.9 ± 0.2 L/kg
same,Cmax,[7]; [12],133 ± 53 ng/mL
same,Tmax,[7]; [12],1.7 ± 0.6 h
same,AUC(0-inf),[7]; [12],626 ± 290 ng·h/mL
same,Cmax,[7]; [13],189 ± 81 ng/mL
same,Tmax,[7]; [13],0.5 h
same,AUC(0-inf),[7]; [13],425 ± 96 ng·h/mL
same,blood plasma ratio at 1 μM,[8],0.67
same,fraction unbound at 1 μM,"Liver microsomal binding; dog, 0.25 mg/mL",0.879
same,fraction unbound at 1 μM,"Liver microsomal binding; dog, 1.0 mg/mL",0.694
same,fraction unbound at 1 μM,"Liver microsomal binding; human, 0.25 mg/mL",0.758
same,fraction unbound at 1 μM,"Liver microsomal binding; human, 1.0 mg/mL",0.641
same,fraction unbound at 1 μM,"Liver microsomal binding; monkey, 0.25 mg/mL",0.751
same,fraction unbound at 1 μM,"Liver microsomal binding; monkey, 1.0 mg/mL",0.589
same,fraction unbound at 1 μM,"Liver microsomal binding; mouse, 1.0 mg/mL",0.82
same,fraction unbound at 1 μM,"Liver microsomal binding; rat, 0.25 mg/mL",0.84
same,fraction unbound at 1 μM,"Liver microsomal binding; rat, 1.0 mg/mL",0.865
